The test system of assay [1] is rabbit serum obtained by immunizing a rabbit with the SARS-CoV strain Frankfurt 1. The class given is binding. More on the design: Binding of a rabbit serum to linear peptides / Binding of a rabbit serum to looped peptides / Rabbit serum linear peptides / Rabbit serum looped peptides / Binding of a rabbit serum to linear peptides of protein N of SARS-CoV Urbani (Rabbit serum linear peptides) / Binding of a rabbit serum to looped/cyclic peptides of protein N of SARS-CoV Urbani (Rabbit serum looped peptides): unit not given here.

Assay [2] concerns antibodies in sera from SARS patients (sera 1a, 1b, 2, 6, 37, 62, London, SARS-yellow, SARS-green). The class given is binding, human. More on the design: Binding of serum 6 to linear peptides of protein X1 of SARS-CoV Urbani / Binding of serum 37 to linear peptides of protein X1 of SARS-CoV Urbani / Binding of serum 6 to looped/cyclic peptide (PEPSCAN-ELISA) / Binding of serum 37 to looped/cyclic peptide (PEPSCAN-ELISA) / Binding of serum 37 to looped/cyclic peptides of protein X1 of SARS-CoV Urbani / Binding of serum 6 to linear peptides of protein X2 / Binding of serum 37 to linear peptides of protein X2 / Binding of serum 37 to looped/cyclic peptides of protein X2 of SARS-CoV Urbani / Binding of serum 6 to linear peptides of protein M of SARS-CoV Urbani / Binding of serum 37 to linear peptides of protein M of SARS-CoV Urbani / Binding of serum 6 to looped/cyclic peptides of protein M of SARS-CoV Urbani / Binding of serum 37 to looped/cyclic peptides of protein M of SARS-CoV Urbani / Binding of serum 6 to linear peptides of protein X3 of SARS-CoV Urbani / Binding of serum 37 to linear peptides of protein X3 of SARS-CoV Urbani / Binding of serum 37 to looped/cyclic peptides of protein X3 of SARS-CoV Urbani / Binding of serum 6 to linear peptides of protein X4 of SARS-CoV Urbani / Binding of serum 37 to linear peptides of protein X4 of SARS-CoV Urbani / Binding of serum 37 to looped/cyclic peptides of protein X4 of SARS-CoV Urbani / Binding of serum 6 to linear peptides of protein X5 of SARS-CoV Urbani / Binding of serum 37 to linear peptides of protein X5 of SARS-CoV Urbani / Binding of serum 37 to looped/cyclic peptides of protein X5 of SARS-CoV Urbani / Binding of serum 6 to linear peptides of protein N of SARS-CoV Urbani / Binding of serum 37 to linear peptides of protein N of SARS-CoV Urbani / Binding of serum 6 to linear peptide (PEPSCAN-ELISA) / Binding of serum 1a to looped/cyclic peptides of protein N of SARS-CoV Urbani / Binding of serum 1b to looped/cyclic peptides of protein N of SARS-CoV Urbani / Binding of serum 2 to looped/cyclic peptides of protein N of SARS-CoV Urbani / Binding of serum 6 to looped/cyclic peptides of protein N of SARS-CoV Urbani / Binding of serum 37 to looped/cyclic peptides of protein N of SARS-CoV Urbani / Binding of serum 62 to looped/cyclic peptides of protein N of SARS-CoV Urbani / Binding of serum London to looped/cyclic peptides of protein N of SARS-CoV Urbani / Binding of serum SARS-green to looped/cyclic peptides of protein N of SARS-CoV Urbani: unit not given here.

Assay [3] concerns control sera (pooled serum of ten healthy LUMC hospital workers; commercial negative donor pooled serum from the Dutch bloodbank). The class given is binding, human. More on the design: Binding of Control serum LUMC to linear peptides / Binding of Control serum Blood-bank to linear peptides / Binding of Control serum LUMC to looped peptides / Binding of Control Serum Blood-Bank to Looped peptides / Binding of Control serum LUMC to linear peptides of the protein M of SARS-CoV Urbani / Binding of Control serum Blood-bank to linear peptides of the protein M of SARS-CoV Urbani / Binding of Control serum LUMC to looped peptides of the protein M of SARS-CoV Urbani / Binding of Control Serum Blood-Bank to Looped peptides of the protein M of SARS-CoV Urbani: unit not given here.

For the sequence ELVIGAVIIRGHLRM, in assay [1], the “Rabbit serum linear peptides” value was 0.8 and the “Rabbit serum looped peptides” value is listed as 0.1. Also, in assay [2], the “Binding of serum 1a to linear peptides of protein M of SARS-CoV Urbani” value is recorded as 0.8, the “Binding of serum 1a to looped/cyclic peptides of protein M of SARS-CoV Urbani” value is given as 0.8, the “Binding of serum 1b to linear peptides of protein M of SARS-CoV Urbani” value came out at 0.6 and the “Binding of serum 1b to looped/cyclic peptides of protein M of SARS-CoV Urbani” value came out at 0.4. In addition, in assay [2], the “Binding of serum 2 to linear peptides of protein M of SARS-CoV Urbani” value is given as 0.7, the “Binding of serum 2 to looped/cyclic peptides of protein M of SARS-CoV Urbani” value worked out at 0.7, the “Binding of serum 6 to linear peptides of protein M of SARS-CoV Urbani” value is 0.3 and the “Binding of serum 6 to looped/cyclic peptides of protein M of SARS-CoV Urbani” value is 0.7. Also, in assay [2], the “Binding of serum 37 to linear peptides of protein M of SARS-CoV Urbani” value came to 0.8, the “Binding of serum 37 to looped/cyclic peptides of protein M of SARS-CoV Urbani” value was found to be 0.7, the “Binding of serum 62 to linear peptides of protein M of SARS-CoV Urbani” value came out at 0.8 and the “Binding of serum 62 to looped/cyclic peptides of protein M of SARS-CoV Urbani” value stood at 0.6. Further, in assay [2], the “Binding of serum London to linear peptides of protein M of SARS-CoV Urbani” value is 0.3, the “Binding of serum London to looped/cyclic peptides of protein M of SARS-CoV Urbani” value was found to be 0.2, the “Binding of serum SARS-green to linear peptides of protein M of SARS-CoV Urbani” value was 0.3 and the “Binding of serum SARS-green to looped/cyclic peptides of protein M of SARS-CoV Urbani” value worked out at 0.3. For the same sequence, in assay [2], the “Binding of serum SARS-yellow to linear peptides of protein M of SARS-CoV Urbani” value amounted to 0.1 and the “Binding of serum SARS-yellow to looped/cyclic peptides of protein M of SARS-CoV Urbani” value amounted to 0.6. In assay [3], the “Binding of Control Serum Blood-Bank to Looped peptides of the protein M of SARS-CoV Urbani” value is 0.7, the “Binding of Control serum Blood-bank to linear peptides of the protein M of SARS-CoV Urbani” value came out at 0.7, the “Binding of Control serum LUMC to linear peptides of the protein M of SARS-CoV Urbani” value worked out at 0.5 and the “Binding of Control serum LUMC to looped peptides of the protein M of SARS-CoV Urbani” value is listed as 0.6.
Regarding ENATFFIFNKLVKDP, in assay [1], the “Binding of a rabbit serum to linear peptides” value came out at 0.1 and the “Binding of a rabbit serum to looped peptides” value is listed as 0.5. In assay [2], the “Binding of serum 1a to linear peptides of protein X1 of SARS-CoV Urbani” value is 0.6, the “Binding of serum 1a to looped/cyclic peptides of protein X1 of SARS-CoV Urbani” value turned out to be 0.4, the “Binding of serum 1b to linear peptides of protein X1 of SARS-CoV Urbani” value turned out to be 0.4 and the “Binding of serum 1b to looped/cyclic peptides of protein X1 of SARS-CoV Urbani” value came out at 0.3. In assay [2], the “Binding of serum 2 to linear peptides of protein X1 of SARS-CoV Urbani” value came out at 0.5, the “Binding of serum 2 to looped/cyclic peptides of protein X1 of SARS-CoV Urbani” value is 0.5, the “Binding of serum 6 to linear peptides of protein X1 of SARS-CoV Urbani” value came out at 0.4 and the “Binding of serum 6 to looped/cyclic peptides of protein X1 of SARS-CoV Urbani” value turned out to be 0.4. In assay [2], the “Binding of serum 37 to linear peptides of protein X1 of SARS-CoV Urbani” value is 0.5, the “Binding of serum 37 to looped/cyclic peptides of protein X1 of SARS-CoV Urbani” value is recorded as 0.4, the “Binding of serum 62 to linear peptides of protein X1 of SARS-CoV Urbani” value is on record as 0.4 and the “Binding of serum 62 to looped/cyclic peptides of protein X1 of SARS-CoV Urbani” value is 0.5. Further, in assay [2], the “Binding of serum London to linear peptides of protein X1 of SARS-CoV Urbani” value is given as 0.2, the “Binding of serum London to looped/cyclic peptides of protein X1 of SARS-CoV Urbani” value is recorded as 0.2, the “Binding of serum SARS-green to linear peptides of protein X1 of SARS-CoV Urbani” value is 0.0 and the “Binding of serum SARS-green to looped/cyclic peptides of protein X1 of SARS-CoV Urbani” value came out at 0.2. For the same sequence, in assay [2], the “Binding of serum SARS-yellow to linear peptides of protein X1 of SARS-CoV Urbani” value amounted to 0.2 and the “Binding of serum SARS-yellow to looped/cyclic peptides of protein X1 of SARS-CoV Urbani” value came to 0.2. In assay [3], the “Binding of Control Serum Blood-Bank to Looped peptides” value is on record as 0.7, the “Binding of Control serum Blood-bank to linear peptides” value came to 0.5, the “Binding of Control serum LUMC to linear peptides” value was 0.4 and the “Binding of Control serum LUMC to looped peptides” value came out at 0.4.

(Values after patent US20070128217A1 (priority 2003, published 2007).)
